Earlier results, collected in patent US20070009938A1, “Minimalist bZIP derivatives that bind to noncanonical gene regulatory sequences” (priority 2005, published 2007).

How the values were obtained:
[1] = test system: AP-1 site; details: previously shown, Lajmi et al. 2000
[2] = test system: CRE (ATF/CREB) site; details: previously shown, Lajmi et al. 2000

binding to AP-1 site, DNase I footprinting [1]	binding to CRE (ATF/CREB) site, DNase I footprinting [2]	Substance
bind	bind	4A: alanine-rich derivative of wt bZIP with four Ala substitutions in the GCN4 basic region (SEQ ID NO:3) (ARAAAARARNTAAARRSRARKLQRMKQ; basic region 4A bZIP mutant peptide)
bind	bind	11A: alanine-rich derivative of wt bZIP with eleven Ala substitutions in the basic region, also mutated in the hinge (SEQ ID NO:4) (ARAAAARARNTAAARRSRAAKAAAAAA; basic region 11A bZIP mutant peptide)
bind	bind	18A: alanine-rich derivative of wt bZIP; 24 of the 27 basic-region residues are alanine (SEQ ID NO:5) (AAAAAAAAANAAAAAAARAAKAAAAAA; basic region 18A bZIP mutant peptide)
